From BindingDB's records for PubMed 11916140 (Universit&Agrave, 2001)

Legend:
Test in all cases: Inhibition Assay
Conditions in all cases: pH 7.4; 25 °C
Carbonic anhydrase 1 = Carbonic anhydrase 1 (Homo sapiens, UniProt P00915)
Text: (§1) Inhibition assay using human Carbonic anhydrase I and II and bovine carbonic anhydrase IV.

Carbonic anhydrase 2 = Carbonic anhydrase 2 (Homo sapiens, UniProt P00918)
Text: as §1

Carbonic anhydrase 4 = molecular target: T1, Carbonic anhydrase 4 (Bos taurus, UniProt Q95323)
T1 sequence (Q95323 whole entry): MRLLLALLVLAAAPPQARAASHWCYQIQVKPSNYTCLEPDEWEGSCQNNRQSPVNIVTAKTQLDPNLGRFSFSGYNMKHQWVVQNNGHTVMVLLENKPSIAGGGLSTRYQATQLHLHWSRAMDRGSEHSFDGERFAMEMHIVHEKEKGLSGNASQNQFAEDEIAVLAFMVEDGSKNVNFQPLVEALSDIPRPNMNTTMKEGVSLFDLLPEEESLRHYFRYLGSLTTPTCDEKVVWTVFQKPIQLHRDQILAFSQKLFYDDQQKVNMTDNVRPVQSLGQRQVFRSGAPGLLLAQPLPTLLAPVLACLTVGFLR
Text: as §1

Sequence of Carbonic anhydrase 1 (P00915 whole entry): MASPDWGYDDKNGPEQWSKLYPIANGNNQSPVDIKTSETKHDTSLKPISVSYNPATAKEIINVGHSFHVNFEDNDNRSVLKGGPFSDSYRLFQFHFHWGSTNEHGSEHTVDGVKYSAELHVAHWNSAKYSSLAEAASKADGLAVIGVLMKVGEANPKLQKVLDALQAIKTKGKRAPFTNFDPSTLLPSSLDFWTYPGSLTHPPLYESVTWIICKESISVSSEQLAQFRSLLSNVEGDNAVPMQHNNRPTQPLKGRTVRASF

Compound | Ki (Carbonic anhydrase 1) | Ki (Carbonic anhydrase 2) | Ki (Carbonic anhydrase 4)
NS(=O)(=O)OCc1csc(-c2ccc(S(=O)(=O)c3ccc(Br)cc3)cc2)n1 [2-[4-(4-Bromophenylsulfonyl)-Phenyl}-thiazole-4-yl-methyl-sulfamate, 3c] | > 1000 nM | 21 nM | 54 nM
NS(=O)(=O)NCc1csc(-c2ccc(S(=O)(=O)c3ccc(Br)cc3)cc2)n1 [2-[4-(4-Bromophenylsulfonyl)-Phenyl}-thiazole-4-yl-methyl-sulfamide, 2c] | > 1000 nM | 16 nM | 50 nM
NS(=O)(=O)OCc1csc(-c2ccc(S(=O)(=O)c3ccc(Cl)cc3)cc2)n1 [2-[4-(4-Chlorophenylsulfonyl)-Phenyl}-thiazole-4-yl-methyl-sulfamate, 3b] | > 1000 nM | 30 nM | 66 nM

Next, values leading:

Ki (Carbonic anhydrase 1) | Ki (Carbonic anhydrase 2) | Ki (Carbonic anhydrase 4) | Compound
> 1000 nM | 24 nM | 65 nM | NS(=O)(=O)NCc1csc(-c2ccc(S(=O)(=O)c3ccc(Cl)cc3)cc2)n1 [2-[4-(4-Chlorophenylsulfonyl)-Phenyl}-thiazole-4-yl-methyl-sulfamide, 2b]
> 1000 nM | 33 nM | 87 nM | NS(=O)(=O)OCc1csc(-c2ccc(S(=O)(=O)c3ccccc3)cc2)n1 [2-[4-(Phenylsulfonyl)-Phenyl}-thiazole-4-yl-methyl-sulfamate, 3a]
> 1000 nM | 28 nM | 83 nM | NS(=O)(=O)NCc1csc(-c2ccc(S(=O)(=O)c3ccccc3)cc2)n1 [2-[4-(Phenylsulfonyl)-Phenyl}-thiazole-4-yl-methyl-sulfamide, 2a]
